Source: patent publication US8410153B2, “Naphthalene isoxazoline invertebrate pest control agents” (E.I. du Pont de Nemours and Company, priority 2007, dated 2013)

Legend:
Type in all cases: in vivo
[1] = system: diamondback moth (Plutella xylostella); experiment: Test A: control of diamondback moth on radish plant, foliar spray; conditions: sprayed at 50 ppm, held 6 days
How it was run: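 Radish plants 12–14 days old, pre-infested with about 50 neonate larvae, sprayed at 50 ppm in 10% acetone/water with 300 ppm X-77 surfactant; three replicates. After 6 days at 25° C and 70% RH, feeding damage was scored visually and mortality counted.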

[2] = system: fall armyworm (Spodoptera frugiperda); experiment: Test B: control of fall armyworm on corn (maize) plant, foliar spray; conditions: sprayed at 50 ppm
How it was run: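 4-5-day-old corn plants pre-infested with 10-15 1-day-old larvae on insect diet, then sprayed with compound at 50 ppm in 10% acetone/90% water with 300 ppm surfactant, three replicates. Held 6 days at 25° C, 70% RH; feeding damage assessed visually and mortality rated.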

[3] = system: western flower thrips (Frankliniella occidentalis); experiment: Test E: control of western flower thrips on Soleil bean plant, contact and/or systemic; conditions: held 6 days
How it was run: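 5–7-day-old Soleil bean plants were sprayed at 250 or 50 ppm in 10% acetone/90% water with 300 ppm X-77 surfactant, three replicates. After drying 1 h, 22–27 adult thrips were added per unit. Mortality and plant damage were rated after 6 days at 25 °C and 45–55% RH.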

Measured: levels of control efficacy (20% or less feeding damage or 80% or more mortality)

O=C(NCCO)c1ccc(C2=NOC(c3cc(Cl)cc(Cl)c3)(C(F)(F)F)C2)c2ccccc12 (centres unmarked) [Compound 11]
very good to excellent: [1] | [2] | [3]; sprayed at 50 ppm | [3]; sprayed at 250 ppm

CC(C)NC(=O)CNC(=O)c1ccc(C2=NOC(c3cc(Cl)cc(Cl)c3)(C(F)(F)F)C2)c2ccccc12 (centres unmarked) [Compound 5]
very good to excellent: [1] | [2] | [3]; sprayed at 50 ppm | [3]; sprayed at 250 ppm

CC(C)NC(=O)CNC(=O)c1ccc(C2=NOC(c3cccc(C(F)(F)F)c3)(C(F)(F)F)C2)c2ccccc12 (racemic) [Compound 38]
very good to excellent: [1] | [2] | [3]; sprayed at 50 ppm | [3]; sprayed at 250 ppm

CC(O)CNC(=O)c1ccc(C2=NOC(c3cc(C(F)(F)F)cc(C(F)(F)F)c3)(C(F)(F)F)C2)c2ccccc12 (centres unmarked) [Compound 67]
very good to excellent: [1] | [2] | [3]; sprayed at 50 ppm | [3]; sprayed at 250 ppm

CCNC(=O)CNC(=O)c1ccc(C2=NOC(c3cc(Cl)cc(Cl)c3)(C(F)(F)F)C2)c2ccccc12 (centres unmarked) [Compound 8]
very good to excellent: [1] | [2] | [3]; sprayed at 50 ppm | [3]; sprayed at 250 ppm

CNC(=O)CNC(=O)c1ccc(C2=NOC(c3cc(Br)cc(C(F)(F)F)c3)(C(F)(F)F)C2)c2ccccc12 (racemic) [Compound 143]
very good to excellent: [1] | [2] | [3]; sprayed at 50 ppm

CSCC(C)NC(=O)c1ccc(C2=NOC(c3cc(C(F)(F)F)cc(C(F)(F)F)c3)(C(F)(F)F)C2)c2ccccc12 (mixture of isomers) [Compound 59]
very good to excellent: [1] | [2] | [3]; sprayed at 50 ppm | [3]; sprayed at 250 ppm

CCSCCCNC(=O)c1ccc(C2=NOC(c3cccc(C(F)(F)F)c3)(C(F)(F)F)C2)c2ccccc12 (racemic) [Compound 48]
very good to excellent: [1] | [2] | [3]; sprayed at 250 ppm

CC[S+]([O-])CCNC(=O)c1ccc(C2=NOC(c3cc(C(F)(F)F)cc(C(F)(F)F)c3)(C(F)(F)F)C2)c2ccccc12 (centres unmarked) [Compound 98]
very good to excellent: [1] | [2] | [3]; sprayed at 50 ppm

CCC(CC)NC(=O)CNC(=O)c1ccc(C2=NOC(c3cc(Cl)cc(Cl)c3)(C(F)(F)F)C2)c2ccccc12 (centres unmarked) [Compound 25]
very good to excellent: [1] | [2] | [3]; sprayed at 250 ppm

CC(C)NC(=O)C(C)NC(=O)c1ccc(C2=NOC(c3cc(C(F)(F)F)cc(C(F)(F)F)c3)(C(F)(F)F)C2)c2ccccc12 (mixture of isomers) [Compound 83]
very good to excellent: [1] | [2] | [3]; sprayed at 50 ppm | [3]; sprayed at 250 ppm

CS(=O)(=O)CCNC(=O)c1ccc(C2=NOC(c3cc(Br)cc(C(F)(F)F)c3)(C(F)(F)F)C2)c2ccccc12 (racemic) [Compound 54]
very good to excellent: [1] | [2] | [3]; sprayed at 50 ppm | [3]; sprayed at 250 ppm

CCN(C)C(=O)CNC(=O)c1ccc(C2=NOC(c3cc(Cl)cc(Cl)c3)(C(F)(F)F)C2)c2ccccc12 (centres unmarked) [Compound 7]
very good to excellent: [1] | [2] | [3]; sprayed at 50 ppm | [3]; sprayed at 250 ppm

CS(=O)(=O)CCNC(=O)c1ccc(C2=NOC(c3cc(F)cc(C(F)(F)F)c3)(C(F)(F)F)C2)c2ccccc12 (racemic) [Compound 134]
very good to excellent: [1] | [2] | [3]; sprayed at 50 ppm | [3]; sprayed at 250 ppm

CNC(=O)CNC(=O)c1ccc(C2=NOC(c3cc(C(F)(F)F)cc(C(F)(F)F)c3)(C(F)(F)F)C2)c2ccccc12 (centres unmarked) [Compound 105]
very good to excellent: [1] | [2] | [3]; sprayed at 50 ppm

CC(C)NC(=O)C(C)NC(=O)c1ccc(C2=NOC(c3cc(C(F)(F)F)cc(C(F)(F)F)c3)(C(F)(F)F)C2)c2ccccc12 (centres unmarked) [Compound 87]
very good to excellent: [1] | [2] | [3]; sprayed at 250 ppm

CCNC(=O)C(C)NC(=O)c1ccc(C2=NOC(c3cc(F)cc(C(F)(F)F)c3)(C(F)(F)F)C2)c2ccccc12 (mixture of isomers) [Compound 137]
very good to excellent: [1] | [2] | [3]; sprayed at 50 ppm

CS(=O)(=O)CCNC(=O)c1ccc(C2=NOC(c3cccc(C(F)(F)F)c3)(C(F)(F)F)C2)c2ccccc12 (racemic) [Compound 39]
very good to excellent: [1] | [2] | [3]; sprayed at 50 ppm | [3]; sprayed at 250 ppm

CCSCCNC(=O)c1ccc(C2=NOC(c3cccc(C(F)(F)F)c3)(C(F)(F)F)C2)c2ccccc12 (racemic) [Compound 51]
very good to excellent: [1] | [2] | [3]; sprayed at 50 ppm | [3]; sprayed at 250 ppm

O=C(CNC(=O)c1ccc(C2=NOC(c3cc(Cl)cc(Cl)c3)(C(F)(F)F)C2)c2ccccc12)NCCF (centres unmarked) [Compound 12]
very good to excellent: [1] | [2] | [3]; sprayed at 50 ppm | [3]; sprayed at 250 ppm

CSCC(C)NC(=O)c1ccc(C2=NOC(c3cc(Cl)cc(Cl)c3)(C(F)(F)F)C2)c2ccccc12 (centres unmarked) [Compound 30]
very good to excellent: [1] | [2] | [3]; sprayed at 250 ppm

C[S+]([O-])CCNC(=O)c1ccc(C2=NOC(c3cc(C(F)(F)F)cc(C(F)(F)F)c3)(C(F)(F)F)C2)c2ccccc12 (centres unmarked) [Compound 79]
very good to excellent: [1] | [2] | [3]; sprayed at 50 ppm | [3]; sprayed at 250 ppm

CC(O)CNC(=O)c1ccc(C2=NOC(c3cccc(C(F)(F)F)c3)(C(F)(F)F)C2)c2ccccc12 (mixture of isomers) [Compound 36]
very good to excellent: [1] | [2] | [3]; sprayed at 250 ppm
